Read-outs that look alike come from different tables or passages of the source.
How the values were obtained:
[1] = system: bacteria in Cooling Tower water; experiment: Efficacy in cooling tower water sample (about pH 8.3), serial dilution count; type: cell-based
[2] = system: four bacterial species (Pseudomonas aeruginosa, Klebsiella pneumoniae, Bacillus subtilis, Staphylococcus aureus); experiment: Preservation of kaolin slurry Kaolux HS (pH 6.6); type: cell-based, bacteria
From the text: Two samples of kaolin slurries (Kaolux HS [particle size finer than 2 microns, 83.4%; 64.9% solids; pH 6.6] and Kaogloss [particle size finer than 2 microns, 90.7%; 70.1% solids; pH 6.3]), are obtained from Thiele Kaolin Company, Sandersville, Ga. Samples of the two slurries are inoculated with four bacterial species (described in Example 8), sampled to confirm the initial size of the bacterial community, and treated with selected concentrations of DBMAL. Samples for bacterial enumeration are collected after 24 hr and 48 hr incubation periods.

bacterial consortium = experiment: Preservation of calcium carbonate slurry Hydrocarb 90 (pH 8.7)
[3] = system: Pseudomonas aeruginosa ATCC 10145; experiment: Bactericidal efficacy in synthetic salts water pH 8.5; type: cell-based; settings: for Dosage required for 3 log10 bacterial reduction (ppm, active): 37° C.
Method: A sterile synthetic salts water is prepared and inoculated with Pseudomonas aeruginosa ATCC 10145 at about 10^7 CFU/mL. The synthetic water is prepared to contain (in 1 liter deionized water) the following: CaCl2, 0.2203 g; MgSO4, 0.1847 g; and NaHCO3, 0.2033 g. The final pH of the synthetic cooling water is adjusted to 8.5. Aliquots of the cell suspension are then treated with biocides at selected dosage levels. The same contaminated water sample without biocide is used as control. After incubating at 37° C. for different time intervals, numbers of surviving bacteria are enumerated using a serial dilution method. After incubating for 24 hr, all cell suspensions are reinoculated with Pseudomonas aeruginosa ATCC 10145 at 10^6 CFU/mL. The efficacy results for […]

Free Legionella = type: cell-based, Legionella pneumophila
[4] = Stability against hydrolysis in buffered dilute solutions, HPLC
[5] = system: amoeba (Acanthamoeba polypohaga) fed Legionella pneumophila (AfLp); type: cell-based; settings: for Active concentration (ppm) required for complete kill (6 log reduction): Amoeba fed Legionella
[6] = system: bacteria isolated from Cooling Tower water; experiment: Efficacy in sterile artificial Cooling Tower water (approx. pH 8.5); type: cell-based; settings: 30° C.
[7] = system: bacteria isolated from field; experiment: Efficacy in semi-synthetic metal working fluid; type: cell-based; settings: room temperature, MWF
[8] = system: mixed species consortium of bacteria; experiment: Preservation of 10% CaCO3 suspensions; settings: 10 ppm, pH 7.0, 8.0, 9.0

For `NC(=O)C(Br)(Br)C(N)=O` [DBMAL, 2,2-Dibromomalonamide], the “Bacterial log10 reduction after biocide addition” value (shortened to “Bacterial log10 reduction”) ([1]; 12.5 ppm active, 1 hr) was 1.2 log10, the “Bacterial log10 reduction” value ([1]; 12.5 ppm active, 48 hrs, re-inoculated) was 5.2 log10 and the “Bacterial log10 reduction” value ([1]; 12.5 ppm active, 72 hrs, re-inoculated) was 1.2 log10. For the same molecule, the “Bacterial log10 reduction” value ([1]; 12.5 ppm active, 96 hrs, re-inoculated) was 0.8 log10, the “Bacterial log10 reduction” value ([1]; 25 ppm active, 1 hr) was 4.3 log10 and the “Bacterial log10 reduction” value ([1]; 25 ppm active, 3 hr) was “>=5.7 log10”. For the same molecule, the “Bacterial log10 reduction” value ([1]; 25 ppm active, 24 hrs) was “>=6.3 log10”, the “Bacterial log10 reduction” value ([1]; 25 ppm active, 48 hrs, re-inoculated) was 6.0 log10 and the “Bacterial log10 reduction” value ([1]; 25 ppm active, 72 hrs, re-inoculated) was 3.0 log10. For the same molecule, the “Bacterial log10 reduction” value ([1]; 25 ppm active, 96 hrs, re-inoculated) was 3.2 log10, the “Bacterial log10 reduction” value ([1]; 50 ppm active, 1 hr) was “>=5.3 log10” and the “Bacterial log10 reduction” value ([1]; 50 ppm active, 3 hr) was 5.5 log10. For the same molecule, the “Bacterial log10 reduction” value ([1]; 50 ppm active, 24 hrs) was “>=6.3 log10”, the “Bacterial log10 reduction” value ([1]; 50 ppm active, 48 hrs, re-inoculated) was “>=6.3 log10” and the “Bacterial log10 reduction” value ([1]; 50 ppm active, 72 hrs, re-inoculated) was 3.8 log10. The “Bacterial log10 reduction” value ([1]; 50 ppm active, 96 hrs, re-inoculated) was 4.2 log10, the “duration of effectiveness (>3 log10 killing) compared with DBNPA” value ([1]; same active concentration of 12.5 ppm) was “one day more” and the “duration of effectiveness (>3 log10 killing) compared with DBNPA” value ([1]; same active concentration of 50 ppm and 25 ppm) was “two days more”. The “change in numbers of viable bacteria (FIG. 3)” value ([2]; 100 ppm to 150 ppm, 48 hr contact time) was “decrease slightly”, the “decrease in viable bacteria (FIG. 3)” value ([2]; 175 ppm) was “approximately one” and the “reduction in viable bacteria (FIG. 3)” value ([2]; concentrations higher than 175 ppm) was “at least five”. For the same molecule, the “change in populations of bacteria (FIG. 6)” value (bacterial consortium; 5 ppm, 24-hr contact) was “decrease relatively little”, the “decrease in numbers of bacteria (FIG. 6)” value (bacterial consortium; 10 ppm, 24-hr contact) was “more than 2.5 orders of magnitude” and the “difference in numbers of bacteria versus samples with 50 ppm DBNPA (FIG. 7)” value (bacterial consortium; 20 ppm DBMAL, 24-hr contact time) was “approximately one-quarter”. For the same molecule, the “single dose efficacy comparison (FIG. 7)” value (bacterial consortium; single dose of 20 ppm, 24-hr contact time) was “as effective as 50 ppm DBNPA or 16 ppm CMIT”, the “Dosage required for 3 log10 bacterial reduction (ppm, active)” value ([3]; 1 hr, pH 8.5) was 14.8 ppm and the “Dosage required for 3 log10 bacterial reduction (ppm, active)” value ([3]; 3 hr, pH 8.5) was 6.6 ppm. The “Dosage required for 3 log10 bacterial reduction (ppm, active)” value ([3]; 24 hr, pH 8.5) was 6.6 ppm, the “Dosage required for 3 log10 bacterial reduction (ppm, active)” value ([3]; 48 hr, pH 8.5, reinoculated after 24 hr) was 6.6 ppm and the “long term bactericidal efficacy compared with DBNPA” value ([3]; after 48 hour incubation and rechallenge with P. aeruginosa cells) was “better than DBNPA”. For the same molecule, the “Active concentration (ppm) required for complete kill (6 log reduction)” value (“Active concentration … (6 log reduction)” for short) (Free Legionella; 2 hours) was 6.25 ppm, the “Active concentration … (6 log reduction)” value (Free Legionella; 24 hours) was 1.56 ppm and the “Calculated Percent Reduction of the Active Ingredient” value (shortened to “Calculated Percent Reduction”) ([4]; pH 6.9, T = 30 C., 48 hours) was 0%. For the same molecule, the “Calculated Percent Reduction” value ([4]; pH 6.9, T = 30 C., 72 hours) was 0%, the “Calculated Percent Reduction” value ([4]; pH 8, T = −1 C., 48 hours) was 0% and the “Calculated Percent Reduction” value ([4]; pH 8, T = −1 C., 72 hours) was 0%. The “Calculated Percent Reduction” value ([4]; pH 8, T = −1 C., 96 hours) was 0%, the “Calculated Percent Reduction” value ([4]; pH 9, T = −1 C., 48 hours) was 21% and the “Calculated Percent Reduction” value ([4]; pH 9, T = −1 C., 72 hours) was 12%. The “Calculated Percent Reduction” value ([4]; pH 9, T = −1 C., 96 hours) was 24%, the “Active concentration … (6 log reduction)” value ([5]; 2 hours) was 12.5 ppm and the “Active concentration … (6 log reduction)” value ([5]; 24 hours) was 3.12 ppm. For the same molecule, the “level needed for 6 log kill of AfLp relative to that needed for free cells” value ([5]; corresponding time points (2 and 24 hours)) was “about twice”, the “Minimum biocide dosage (ppm, active) needed for at least 3 log10 bacterial reduction” value ([6]; 1 h) was 15.0 ppm and the “Minimum biocide dosage (ppm, active) needed for at least 3 log10 bacterial reduction” value ([6]; 3 h) was 11.0 ppm. For the same molecule, the “Minimum biocide dosage (ppm, active) needed for at least 3 log10 bacterial reduction” value ([6]; 24 h) was 5.0 ppm, the “Minimum biocide dosage (ppm, active) needed for at least 3 log10 bacterial reduction” value ([6]; 48 h, reinoculated) was 5.0 ppm and the “Minimum biocide dosage (ppm, active) needed for at least 3 log10 bacterial reduction” value ([6]; 72 h, reinoculated) was 5.0 ppm. For the same molecule, the “Minimum biocide dosage (ppm, active) needed for at least 3 log10 bacterial reduction” value ([6]; 96 h, reinoculated) was 15.0 ppm, the “Minimum dosage (ppm, active) required for at least 3 log10 reduction in bacterial counts” value ([7]; 2 h) was 57 ppm and the “Minimum dosage (ppm, active) required for at least 3 log10 reduction in bacterial counts” value ([7]; 4 h) was 44 ppm. The “Minimum dosage (ppm, active) required for at least 3 log10 reduction in bacterial counts” value ([7]; 24 h) was 44 ppm, the “Minimum dosage (ppm, active) required for at least 3 log10 reduction in bacterial counts” value ([7]; 48 h) was 34 ppm and the “Minimum dosage (ppm, active) required for at least 3 log10 reduction in bacterial counts” value ([7]; 72 h) was 26 ppm. The “Minimum dosage (ppm, active) required for at least 3 log10 reduction in bacterial counts” value ([7]; 96 h) was 34 ppm, the “bacterial counts (FIG. 5)” value ([8]; 2-hr contact) was “increased inhibition of the bacteria at pH 9.0 versus pH 7.0 and 8.0” and the “bacterial counts (FIG. 5)” value ([8]; 24 hr contact, limit of detection) was 1.0 log10.

Source: patent publication US20100314318A1, “HALOGENATED AMIDE BIOCIDAL COMPOUNDS AND METHODS FOR TREATING WATER SYSTEMS AT NEAR NEUTRAL TO HIGH PH” (priority 2009, published 2010)
